Experiment: in vitro
Conditions: human, hela cells, % viability

Row | Structure (SMILES) | viability at 28.5 h, 10 µM [%] | viability at 28.5 h, 10 µM (bulk resorufin, single well) [%]
1 | O=C(NCc1ccco1)c1ccc(-c2ccoc2)nc1 [CBK156279] | 105 | –
2 | COc1ccc(OC)c(-n2nnnc2SCC2CCCN(C)C2)c1 (stereo not shown) [CBK305386] | 84.2 | –
3 | COc1cccc(OCc2cnc(-c3ccc(Cl)cc3)c(-c3cccc(CNC(C)=O)c3)c2)c1 [CBK165225] | 90.5 | –
4 | O=C(O)C1CCN(c2cncc(-c3ccc4ccccc4c3)n2)CC1 [CBK065801] | 95.5 | –
5 | CC(=O)OC(C(=O)N1CCCCCC1)c1ccc(Br)cc1 (stereo not shown) [CBK007027] | 109 | –
6 | CC(C)Oc1cccc(C(=O)Nc2ccc(N3CCN(C(=O)C(C)(C)C)CC3)cc2)c1 [CBK270280] | 88.7 | –
7 | COc1ccc(CC(=O)N2CCN(C(C)c3nc4ccccc4s3)CC2)cc1F (stereo not shown) [CBK297733] | 95.9 | –
8 | O=C(NCn1nnc2ccccc21)c1ccccc1 [CBK056950] | 93.6 | –
9 | COc1ccc(N(CC(=O)Nc2cccnc2)S(=O)(=O)c2ccc(C)cc2)cc1 [CBK264033] | 99.6 | –
10 | COc1cc(C=C2C(=O)NC(=O)NC2=O)cc(I)c1OCc1ccc(Cl)cc1Cl [CBK262528] | – | 91.8
11 | NS(=O)(=O)c1ccc(Nc2nc(-c3cccs3)cs2)cc1 [CBK262502] | 96.2 | –
12 | O=[N+]([O-])c1cccc(/C=C/C=N/c2ccc3c(c2)S(=O)(=O)c2cc(/N=C/C=C/c4cccc([N+](=O)[O-])c4)ccc2-3)c1 [CBK261244] | 97.6 | –
13 | CCOc1cc(OCC)cc(C(=O)N2CCCC3(CC(=O)c4ccc(C)cc4O3)C2)c1 (stereo not shown) [CBK168067] | 93.9 | –
14 | O=C(O)c1cccc(Nc2ncnc3ccccc23)c1 [CBK073042] | 87.8 | –
15 | Cn1ncc2c(C(=O)O)cc(-c3ccccc3)nc21 [CBK288024] | 88.9 | –
16 | O=C(O)CCCCc1nn(-c2ccc(Cl)c(Cl)c2)c2c1CCC2 [CBK012529] | 97.5 | –
17 | CCN(CC)C(=O)NC(C)c1cccc(S(=O)(=O)NC)c1 (stereo not shown) [CBK305134] | 94.4 | –
18 | CN(Cc1ccc2ncccc2c1)C(=O)C1CN(S(=O)(=O)c2ccc(F)cc2)C1 [CBK285943] | 92.5 | –
19 | Cc1cc(C2CCCCCN2C(=O)c2c(C)noc2C)no1 (stereo not shown) [CBK284845] | 85.1 | –
20 | CC(=O)Nc1ccc(CCC2(NC(=O)C3CC3)CCCCC2)cn1 [CBK282290] | 87.4 | –
21 | COC(=O)C1=C(C)N=C2SCCC(=O)N2C1c1ccc(C(C)C)cc1 (stereo not shown) [CBK073523] | 109 | –
22 | CCN(CC(=O)NCc1ccc(C)cc1)S(=O)(=O)c1ccc(C)cc1 [CBK267511] | 110 | –

Row | Structure (SMILES) | viability at 28.5 h, 10 µM [%] | viability at 28.5 h, 10 µM (bulk resorufin, single well) [%]
23 | C(=C\c1ccc(-c2nnc(CSCCOc3ccccc3)o2)cc1)/CN1CCCC1 [CBK081376] | 98.5 | –
24 | COc1ccnc(N2C[C@@H]3OCC(=O)N(Cc4ccccc4)[C@@H]3C2)n1 [CBK289666] | 91 | –
25 | O=C1CN(C(=O)NCc2ccc(Cl)cc2)CCN1 [CBK155867] | 109 | –
26 | C=CCn1c(Cc2csc(NC(=O)c3cnc(SC)n3-c3ccccc3)n2)n[nH]c1=S [CBK297786] | 84.3 | –
27 | COc1cc(C(=O)O)ccc1Oc1cnn(-c2ccccc2)c(=O)c1Cl [CBK287032] | 94.9 | –
28 | O=C(O)C1CCN(C(=O)CCn2ccc3cc(Br)ccc32)CC1 [CBK286617] | 105 | –
29 | CCOC(=O)c1sc(-c2ccccc2)nc1OCc1ccccc1Cl [CBK067727] | 95.8 | –
30 | COc1ccccc1CC(=O)N1CCC(Cc2ccc(-c3ccccc3)cc2)(C(N)=O)CC1 [CBK285777] | 95.4 | –
31 | CN(C)CCNC(=O)c1cccc(-c2cn3ccnc3c(NCc3ccccc3)n2)c1 [CBK066365] | 102 | –
32 | c1ccc(-c2nc(C3CCCC3)n3ccccc23)cc1 [CBK149260] | 93.3 | –
33 | OC1(C2CNc3ccccc3C2)CCNCC1 (stereo not shown) [CBK283847] | 110 | –
34 | Cc1noc(C)c1C(=O)N1CCc2ccccc2C1 [CBK200333] | 103 | –
35 | Cc1cccc(Oc2ccccc2NS(=O)(=O)c2ccc3c(c2)N(CC(=O)O)C(=O)CO3)c1 [CBK295287] | 92.1 | –
36 | CC(C)(C)c1cc(C(=O)NCC2CCCN2)n(Cc2ccc(Cl)cc2Cl)n1 (stereo not shown) [CBK115920C] | 96.1 | –
37 | CN(C)CCN(C)c1cc(-c2cccc(C(=O)O)c2)nc2ccnn12 [CBK037206] | 101 | –
38 | Nc1ccc(-c2ccc(OC(F)(F)F)cc2)c2ccccc12 [CBK084327] | 84.6 | –
39 | O=C(O)C1CCCCC1c1nnc(S)[nH]1 (stereo not shown) [CBK266490] | 96.4 | –
40 | O=C1OCCN1C1CCN(S(=O)(=O)c2cccs2)CC1 [CBK043313] | 99.3 | –
41 | O=C(NCC1(CCO)CC1)c1c[nH]nc1-c1cc2ccccc2o1 [CBK306163] | 94.5 | –
42 | CCC(CNC(=O)c1ccoc1C)N1CCCC1 (stereo not shown) [CBK304798] | 88.9 | –
43 | O=C(Cc1nnn[nH]1)Nc1cccc(-c2nn[nH]n2)c1 [CBK160122] | 116 | –
44 | O=c1[nH]nc2n1-c1ccccc1OC2 [CBK010583] | 104 | –

Row | Structure (SMILES) | viability at 28.5 h, 10 µM [%] | viability at 28.5 h, 10 µM (bulk resorufin, single well) [%]
45 | O=C(O)c1ccccc1C(=O)N1CCC2(CC1)OCc1cc(-c3ccco3)ccc1O2 [CBK060824] | – | 93.6
46 | O=c1ncccn1[C@@H]1O[C@H](CO)[C@H](O)C1O (stereo partly shown) [CBK201195] | 94 | –
47 | O=S(=O)(c1ccc(Br)cc1F)N1CCCCC1CO (stereo not shown) [CBK051302] | 92.9 | –
48 | CNC(=O)CSc1nnc(COc2cccc3ccccc23)n1-c1ccccc1 [CBK266043] | 102 | –
49 | Cc1cc(NC(=O)c2c(F)cccc2F)c2ccccc2n1 [CBK122737] | 92.7 | –
50 | COc1ccc(Cl)cc1NC(=S)NNC(=O)c1cccnc1 [CBK267161] | 92.7 | –
51 | C/C(=N\Nc1cccc2cccnc12)C(C)(C)C [CBK021957] | 113 | –
52 | CN1C(=O)c2ccccc2OCCCCC[C@H]2[C@@H]1CCCN2C(=O)c1cc2c([nH]c1=O)CCC2 [CBK292034] | 114 | –
53 | CC1CCN(S(=O)(=O)c2ccc(C(=O)N3CCCCC3C(=O)O)cc2)CC1 (stereo not shown) [CBK297094] | 89.8 | –
54 | O=C(Nc1ccccc1C(=O)O)c1cccc(-n2cnnc2)c1 [CBK269769] | 85.4 | –
55 | COc1ccc(CCCC(=O)Nc2cc(N3CCNCC3)ncn2)cc1OC [CBK107856] | 93.9 | –
56 | O=C(c1cccs1)N1CCOC(Cn2ccnc2)C1 (stereo not shown) [CBK282256] | 103 | –
57 | O=C(NCCOc1ccccc1)NC(=O)C1CCNCC1 [CBK088187T] | 119 | –
58 | O=C(NC1CC1)C1(Cc2ccccc2-c2ccncc2)CCOCC1 [CBK284785] | 94.1 | –
59 | CCn1cc(S(=O)(=O)NCC2(c3ccccc3)CCCC2)cn1 [CBK282768] | 97.2 | –
60 | CCCCSc1nc(N)cc(N2CCC(C(=O)N3CCOCC3)CC2)n1 [CBK306619] | 96.8 | –
61 | CC(C)COC(=O)N1CCN(C2CCc3cc(-c4ccc([S+](C)[O-])cc4)ccc3C2)CC1 (stereo not shown) [CBK173425] | 89.8 | –
62 | COc1ccccc1/C=C1/S/C(=N/Cc2ccccc2)N(Cc2ccccc2)C1=O [CBK262234] | 99.3 | –
63 | FC(F)(F)c1ccc(CN2CCC(Oc3nccnc3OC3CCCCC3)CC2)cc1 [CBK082859T] | 92.1 | –
64 | CC(=O)N(C)c1nc(-c2cccc(N(C)C)c2)ccc1C(=O)Nc1ccc(C(F)(F)F)cc1 [CBK076623] | 98.5 | –
65 | O=C(CSc1nnc(-c2cccc(F)c2)o1)c1ccccc1 [CBK068764] | 105 | –
66 | O=C1N[C@@H]2CCN(C(=O)COc3cccnc3)C[C@@H]2CCCCCOc2ccccc21 [CBK292037] | 94.6 | –

Row | Structure (SMILES) | viability at 28.5 h, 10 µM [%] | viability at 28.5 h, 10 µM (bulk resorufin, single well) [%]
67 | CC(=O)N1CCCc2cc(C(O)CN(C)Cc3ccccc3)ccc21 (stereo not shown) [CBK282149] | 88.5 | –
68 | Cn1c(Cc2ccccc2)nnc1SCCC(=O)Nc1ccccc1 [CBK268874] | 91.3 | –
69 | CS(=O)(=O)N1CCC(C(=O)NCCN2CCOCC2)CC1 [CBK270151] | 100 | –
70 | COC(=O)[C@@H](C)NC(=O)[C@@H]1CN(C(=O)c2cccc(F)c2)CCN1C(C)=O [CBK289620] | 91.3 | –
71 | COc1ccc(-c2nnc([C@H]3CCN(Cc4cccc(C#N)c4)C3)o2)cc1 [CBK289400] | 94.8 | –
72 | CCN1CC2(CCN(Cc3ncc[nH]3)CC2)c2ccccc21 [CBK131486] | 89.1 | –
73 | CCC(=O)Nc1ccc(-c2nc3ccccc3[nH]2)cc1 [CBK287561] | 98.7 | –
74 | Cc1cc(C)c2c(O)nc(SCC(=O)c3ccccc3)nc2n1 [CBK264336] | 100 | –
75 | O=C(NCc1cccc(OCC2CCCO2)c1)C1C2CCCCC21 (stereo not shown) [CBK281517] | 94.3 | –
76 | COc1ccc(N2CCN(c3cncc(-c4cccnc4)n3)CC2)cc1OC [CBK066086] | 90.5 | –
77 | O=C(NCCn1cncn1)C1(c2ccccc2F)CC1 [CBK283087] | 87 | –
78 | COC(=O)C1C(=O)Oc2ccc3ccccc3c2C1C(C)C(=O)c1ccc(Br)cc1 (stereo not shown) [CBK266126] | 114 | –
79 | N#CCCn1cc(C(=O)N2CCCCC2)c(-c2cccs2)n1 [CBK306194] | 86.5 | –
80 | Cc1cnc(C(=O)OCc2cc(=O)n3ccsc3n2)cn1 [CBK296978] | 95.5 | –
81 | COc1ccc([C@@]23CC[C@@H](NC(=O)c4ccc(C(F)(F)F)c(F)c4)C[C@@H]2CN(C)C3)cc1OC [CBK082742C] | 107 | –
82 | Cn1c(CN2CCN(C3CCCC3)C(=O)C2)nc2ccccc21 [CBK281577] | 100 | –
83 | CCOC(=O)C(CNS(=O)(=O)c1ccc(F)cc1C)Cc1ccccc1 (stereo not shown) [CBK305427] | 92.3 | –
84 | O=c1ccc2ccc(-c3cccc(C(F)(F)F)c3)nc2[nH]1 [CBK073717] | 83.7 | –
85 | CC(C)(C)OC(=O)N1CCCC(C(=O)Nc2ccccn2)C1 (stereo not shown) [CBK304524] | 95.4 | –
86 | COC(=O)c1ccccc1NC(=O)CNS(=O)(=O)c1ccc(C)cc1 [CBK266000] | 94.7 | –
87 | COc1ccc(OC)c(NC(=O)CN2CCC(C(N)=O)(N3CCCCC3)CC2)c1 [CBK268462] | 98.2 | –
88 | COC[C@@H]1OC[C@@]2(C)C3CC[C@@H](O)[C@@H](CC(=O)NCc4ccccc4)[C@]3(C)CC[C@H]2O1 (stereo partly shown) [CBK289574] | 79.1 | –

— publication PMC12040169 (PLOS Biology, 2025)
